Here are results for six molecules from patent US11993576B2, “N-benzyl-N-arylsulfonamide derivative and preparation and use thereof” (Hangzhou Yirui Pharmaceutical Technology Co., Ltd, priority 2019, dated 2024).

Molecules are shown by their SMILES. Entries after “also recorded” stand apart in the source; their conditions may differ.

In assay [1] the target is T1, human Kv1.3 (Homo sapiens, UniProt P22001). Description: IonWorks automated patch clamp assay of inhibitory activity against Kv1.3. The class given is cell-based. Particulars: automated patch clamp method; CHO-K1 cells stably expressing human Kv1.3. How it is done: I. IonWorks Automated Patch Clamp Assay of Inhibitory Activity Against Kv1.3
T1 sequence (P22001 whole entry): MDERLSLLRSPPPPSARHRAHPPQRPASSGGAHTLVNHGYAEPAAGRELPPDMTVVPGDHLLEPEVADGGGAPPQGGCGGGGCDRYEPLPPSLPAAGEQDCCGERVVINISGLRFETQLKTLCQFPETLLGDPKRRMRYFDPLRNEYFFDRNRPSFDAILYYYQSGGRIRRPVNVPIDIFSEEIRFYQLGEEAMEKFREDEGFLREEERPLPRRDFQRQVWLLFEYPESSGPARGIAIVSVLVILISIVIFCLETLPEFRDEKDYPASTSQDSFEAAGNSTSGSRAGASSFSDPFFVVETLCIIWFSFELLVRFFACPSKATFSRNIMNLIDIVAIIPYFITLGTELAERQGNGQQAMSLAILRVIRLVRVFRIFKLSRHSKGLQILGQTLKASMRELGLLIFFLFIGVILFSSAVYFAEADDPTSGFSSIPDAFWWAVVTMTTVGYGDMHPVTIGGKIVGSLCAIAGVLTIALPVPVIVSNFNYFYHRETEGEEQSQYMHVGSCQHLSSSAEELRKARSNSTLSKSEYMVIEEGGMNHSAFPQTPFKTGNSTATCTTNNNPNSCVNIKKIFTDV
The principle and method for Kv1.3 IonWorks assay can be found in Schroeder et al. [Schroeder et al. J Biomol Screen 2003, 8(1):50-64]
Inhibitory activity of the compounds against Kv1.3 was assessed using a CHO-K1 recombinant cell line stably expressing human Kv1.3 (Charles River, Calif.). The cells were cultured in an F-12K culture medium containing 5% calf serum (Invitrogen, Carlsbad. Calif.) in an incubator at 37° C. and under air humidity with 6% CO2. Prior to be fed in the IonWorks system, the adherent cells were treated with Versene at 37° C. for 6-7 min. After gently beating the culture flask, the cells were re-suspended in a PBS phosphate buffer, and then were centrifuged at 50×g for 4 min. After a short grinding, the cells were eventually re-suspended in an external recording solution at a density of approximately 1×10^6/mL.
The compounds were dissolved in DMSO to formulate a final assay concentration of 300× on the master plate. The final gradient assay concentrations were […], 0.096, 0.048, 0.24, 1.2, 6 and 30 μM. All 300× stock solutions of each compound in DMSO were transferred to a 384-well plate with 2 μl per well. The plates were sealed and stored at −80° C. until the day of assay.
On the day of assay, the plates were each thawed at room temperature. After centrifugation, 198 μl of the external recording solution (with the components of: 130 mM Na-Gluconate, 20 mM NaCl, 4 mM KCl, 1 mM MgCl2, 1.8 mM CaCl2, 5 mM Glucose and 10 mM HEPES, pH7.3) was added and mixed thoroughly. This step provided a 1:100 dilution for the compounds. After addition of cells to IonWorks, a further 1:3 dilution was carried out, resulting in a total dilution of 1:300. At least 8 wells were reserved as blank control on each of the plates, i.e., containing only 0.3% DMSO. In addition, at least 8 wells were reserved as positive control to detect the specificity to cell signals. Fluoxetine, a compound as the positive control, was assayed at its maximum blocking concentration (100 μm) and secondary maximum blocking concentration (10 μm). In addition, an internal recording solution used in the assay (with the components of: 100 mM K-gluconate, 40 mM KCl, 1 mM MgCl2, 1 mM EGTA and 10 mM HEPES, pH7.3) contained Amphotericin B at a final concentration of 200 μg/mL to gain current channels inside the cells. The osmotic pressure of the solution was adjusted with sucrose.
Experimental procedures were carried out following the protocols as set by IonWorks Quattro system (Molecular Devices, San Jose, CA). The current of human Kv1.3 was elicited to 0 millivolt (mV) for four times by a pulse lasting 1 second. A potential of −80 mV was maintained between pulses, for 5 seconds. First, a early voltage application program was started in the IonWorks Quattro system, and then the compounds were added and incubated for 600 seconds. Next, a late voltage application program was started until completion of all assays.
The maximum peak outward currents both before and after addition of the compounds as well as the average tail current elicited when the fourth pulse rose to 0 mV were measured. The inhibitory activity of the compounds against Kv1.3 can be calculated by dividing the measured current amplitude after addition of the compounds by the measured current amplitude before addition of the compounds.
All data was calibrated by a data filtration program of the IonWorks Quattro system. The filtration standard was that: seal quality >30 MΩ, decrease of seal resistance <50% and current amplitude >200 pA.

The subject of assay [2] is rat model of psoriasis induced by imiquimod. Description: Rat model of psoriasis induced by imiquimod. The class given is in vivo. Particulars: Wista female rats; for pathological analysis of skin (HE×100): skin lesions of the back collected on day 11, FIG. 3. How it is done:
V. Effects of Compound 24 on a Rat Model of Psoriasis Induced by Imiquimod
SPF Wista female rats with body weight of around 200 g were used.
Dexamethasone (DXMS) sodium phosphate injection, 5 mg/ml/injection (Shiyao Yinhu Pharmaceutical Co., Ltd.); 5% imiquimod cream, 0.25 g/pack (Sichuan MED-SHINE Pharmaceutical Co., Ltd.); 3×10^6 U recombinant human interferon α-2a injection, 1.0 ml/vial (Shenyang Sunshine Pharmaceutical Co., Ltd.); vehicle and negative control: acetone/DMSO 9:1 (Vehicle).
3.1 The animals were randomly divided into 6 groups based on body weight with 10 animals per group: normal control group, model control group, positive control group (dexamethasone sodium phosphate injection 5 mg/mL), 1% Compound 24 group, 0.3% Compound 24 group and 0.1% Compound 24 group.
3.2 Modelling and administration: after adaptive feeding for several days, for each of the rats, hair in central area of the back (2 cm×2 cm) was shaved, and then the surface short hair was shaved with mild depilatory cream, washed and dried. If hair on the back grew out again during the experiment, the hair was removed with a razor. Every morning, for the rats in model control group and administration groups, 5% imiquimod cream was evenly applied on the back at 20 mg/cm^2 (0.25 g/pack, for 3 rats), and after 10 min, recombinant human interferon α-2a injection was injected intraperitoneally at 10,000 U/500 g; for the normal control group, the rats were not treated, once a day, for 10 days. In the afternoon, for the rats in the administration groups, drugs were applied at a corresponding dose (drugs with corresponding concentrations were applied on the back at 100 μL/rat, twice, 50 μL each time) once a day for 10 days.
3.3 Psoriasis Area and Severity Index (PASI) score: according to PASI scoring standard, a score of 0-4 was given for erythema, scale and epidermal thickening of infiltration in the lesional skin of rats. The scoring criteria was as follows: 0, none; 1, mild; 2, moderate; 3, severe; 4, extremely severe. For the rats in each of the groups, the scores were averaged and changes in skin lesions of the rats were observed.
3.4 HE staining: after completion of modeling (on day 11), the tissues with skin lesions on the back of rats were collected, fixed with 4% neutral formaldehyde, embedded in paraffin, and sectioned. After HE staining, changes in skin histomorphology were observed under a microscope, and Baker scoring was performed. […]
3.5 Statistical Methods: all data was expressed as mean±standard deviation (x±s). […]

A further assay deals with human Kv1.5 (Homo sapiens, UniProt P22460). Description: Conventional patch clamp assay of inhibitory activity against Kv1.5. The assay is classed as cell-based. The conditions noted are these: conventional patch-clamp method; CHO-K1 cells stably expressing human Kv1.5. How it is done: III. Conventional Patch Clamp Assay of Inhibitory Activity Against Kv1.5
Chain of human Kv1.5 (P22460 whole entry): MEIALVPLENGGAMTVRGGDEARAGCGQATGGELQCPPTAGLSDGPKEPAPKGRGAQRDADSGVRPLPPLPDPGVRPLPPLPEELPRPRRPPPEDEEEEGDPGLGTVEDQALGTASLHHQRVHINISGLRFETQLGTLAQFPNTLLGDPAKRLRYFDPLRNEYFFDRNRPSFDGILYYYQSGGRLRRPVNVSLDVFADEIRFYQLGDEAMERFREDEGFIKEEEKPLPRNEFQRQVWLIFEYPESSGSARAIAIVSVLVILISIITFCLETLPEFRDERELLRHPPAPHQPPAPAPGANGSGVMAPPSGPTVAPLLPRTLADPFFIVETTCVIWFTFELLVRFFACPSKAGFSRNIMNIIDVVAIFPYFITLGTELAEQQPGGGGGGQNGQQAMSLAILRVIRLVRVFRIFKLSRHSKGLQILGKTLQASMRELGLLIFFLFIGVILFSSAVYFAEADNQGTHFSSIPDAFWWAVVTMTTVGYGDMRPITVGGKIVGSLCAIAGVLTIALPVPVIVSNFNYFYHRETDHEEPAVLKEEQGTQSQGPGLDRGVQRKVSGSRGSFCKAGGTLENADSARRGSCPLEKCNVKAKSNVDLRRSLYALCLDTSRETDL
The principle and method for the conventional patch clamp method can be found in Grissmer et al. [Grissmer et al. Molecular Pharmacology 1994, 45:1227-1234].
Inhibitory activity of a compounds against Kv1.5 was assessed using a CHO-K1 recombinant cell line stably expressing human Kv1.5 (Charles River, Calif.). The cells were cultured in an F-12K culture medium containing 5% calf serum (Invitrogen, Carlsbad.ca) in an incubator at 37° C. and under air humidity with 6% CO2.
(§1) During the experiment, adherent cells were placed in a recording chamber under an inverted microscope. All the experiments were performed at room temperature. Each of the cells used itself as the control.
(§2) The test compounds were formulated to their final concentrations on the day of assay, and then dissolved in an extracellular fluid. The extracellular fluid (mM) was: NaCl, 137; KCl, 4; CaCl2, 1.8; MgCl2, 1; HEPES, 10; glucose 10; pH 7.4 (NaOH titration). All the solutions of the test compounds and the control compounds contained 0.3% of DMSO.
Each of the compounds was perfused by a gravity-driven perfusion system. At least two cells were tested for each of the concentrations of a compound. After the current was stable, the blocking effect of the compounds was calculated by comparing the change in the current before and after administration of the compounds.
1000 μM 4-AP was used as a positive control.
(§3) The cells were transferred to a perfusion chamber, and were perfused with the extracellular fluid. Intracellular fluid (mM): K-aspartate, 130; MgCl2, 5; EGTA 5; HEPES, 10; pH 7.2 (KOH titration). The intracellular fluid was stored in a small amount in a refrigerator at −80° C. in batches, and was thawed on the day of the experiment. The electrodes were drawn by PC-10 (Narishige, Japan). A whole-cell patch-clamp recording was performed, with the noise being filtered by one-fifth of the sampling frequency.
The cells were clamped at −80 mV and then depolarized to 20 mV with square waves lasting for 2 seconds to obtain a Kv1.5 current. This process was repeated every 20 seconds. The maximum current elicited by the square waves was detected. After the maximum current became stable, the test compounds were perfused. After the reaction was stable, the blocking strength was calculated.
Data was collected and analyzed using pCLAMP 10 (Molecular Devices, Union City, CA). A stable current meant a current which varies within a limited range over time. The value of the stable current was used to calculate the effect of a compound at this […].

Assay [3] has as its target T1, human Kv1.3. Description: Conventional patch clamp assay of inhibitory activity against Kv1.3. Particulars: conventional patch-clamp method; CHO-K1 cells stably expressing human Kv1.3. The assay is classed as cell-based.
Source text: II. Conventional Patch Clamp Assay of Inhibitory Activity Against Kv1.3
In order to compare the influence of different assay methods on the inhibitory activity of a compound, the conventional patch clamp method was used to assay the inhibitory activities of compounds 21, 37, 44, 61 against Kv1.3. The principle and method for the conventional patch clamp method can be found in Grissmer et al. [Grissmer et al. Molecular Pharmacology 1994, 45:1227-1234].
Inhibitory activity of the compounds against Kv1.3 was assessed using a CHO-K1 recombinant cell line stably expressing human Kv1.3 (Charles River, California). The cells were cultured in an F-12K culture medium containing 5% calf serum (Invitrogen, Carlsbad.ca) in an incubator at 37° C. and under air humidity with 6% CO2.
as §1, §2
Each of the compounds was perfused by a gravity-driven perfusion system. At least two cells were tested for each of the concentrations of a compound. After the current was stable, the blocking effect of the compounds was calculated by comparing the change in the current before and after administration of the compounds. 1000 μM 4-AP was used as a positive control.
as §3
The cells were clamped at −80 mV and then depolarized to 0 mV with square waves lasting for 2 seconds to obtain a Kv1.3 current. This process was repeated every 20 seconds. The maximum current elicited by the square waves was detected. After the maximum current became stable, the test compounds were perfused. After the reaction was stable, the blocking strength was calculated.
Data was collected and analyzed using pCLAMP 10 (Molecular Devices, Union City, CA). A stable current meant a current which varies within a limited range over time. […]

On human Kv1.3 [1], `CCCS(=O)(=O)N(Cc1ccc(Cl)cc1)c1ccc(N2CCN(C(=O)OCC)CC2)c(C#N)c1` [Compound 24] had a 50% inhibitory concentration (IC50) of 0.086 µM. Besides, the PASI score entry in assay [2] (1%, 0.3%, 0.1% applied on the back once a day for 10 days, FIG. 2A) is listed as “had a significant effect on psoriasis in a dose-dependent manner; also recorded: exhibited a significant efficacy on psoriasis in a dose-dependent manner”. For the same molecule, the Baker score result in assay [2] (1%, 0.3%, 0.1% applied on the back once a day for 10 days, HE staining day 11, FIG. 2B) is recorded as “had a significant effect on psoriasis in a dose-dependent manner; also recorded: exhibited a significant efficacy on psoriasis in a dose-dependent manner”. The “pathological analysis of skin (HE×100)” value is “had a significant effect on psoriasis in a dose-dependent manner” in assay [2]; “the skin structure was intact, the granular layer was visible, the skin was partly lengthened and clubbed, no acanthosis was observed, and a small amount infiltration of inflammatory cells was observed in the dermis” in assay [2] (listed as compound 24).

Consider `CCCS(=O)(=O)N(Cc1ccc(F)cc1)c1ccc(N2CCN(C(=O)N(C)C)CC2)c(C#N)c1` [Compound 21, 4-(2-cyano-4-(N-(4-fluorobenzyl)propyl)phenyl)-N,N-dimethylpiperazin-1-formamide], for which the values for the half-maximal inhibitory concentration (IC50) on human Kv1.3 [1], on human Kv1.5 and against human Kv1.3 [3] were 0.097 µM, 2.82 µM and 0.141 µM, respectively.

`CCCS(=O)(=O)N(Cc1ccc(Cl)cc1)c1ccc(N2CCN(S(=O)(=O)N(C)C)CC2)c(C#N)c1` [Compound 44, 4-(4-(N-(4-chlorobenzyl)propanesulfonamido)-2-cyanophenyl)-N,N-dimethylpiperazin-1-sulfonamide]: the figures for the half-inhibitory concentration (IC50) at human Kv1.3 [1], at human Kv1.5 and on human Kv1.3 [3] were 0.096 µM, 7.9 µM and 0.111 µM, respectively.

Consider `CCCS(=O)(=O)N(Cc1ccccc1)c1ccc(N2CCN(C(=O)OCC)CC2=O)c(C#N)c1` [Compound 61, ethyl 4-(4-(N-benzylpropanesulfonamido)2-cyanophenyl)-3-oxopiperazin-1-formate], for which the figures for the concentration for half-maximal inhibition (IC50) on human Kv1.3 [1], against human Kv1.5 and at human Kv1.3 [3] were 0.092 µM, 2.11 µM and 0.13 µM, respectively.

With `CCCS(=O)(=O)N(Cc1ccc(F)cc1)c1ccc(N2CCC(O)CC2)c(C#N)c1` [Compound 19, N-(3-cyano-4-(4-hydroxypiperidin-1-yl)phenyl)-N-(4-fluorobenzyl)propane-1-sulfonamide], the IC50 at human Kv1.3 [1] came out at 0.13 µM.

`N#Cc1cc(N(Cc2ccccc2)S(=O)(=O)c2ccccc2)ccc1OC1CCN(C=O)CC1` [Compound 60, N-(4-((1-formylpiperidin-4-yl)oxy)-3-cyanophenyl)-N-benzylbenzenesulfonamide]: the IC50 on human Kv1.3 [1] was 0.332 µM.
